In patent publication US8829067B2, “Polymerizable compositions with initiators containing several Ge atoms” (Ivoclar Vivadent AG, priority 2008, dated 2014):
“And” between values parts separate entries of the source, which are not always exact repeats. Equal entries are not always repeated.

Assays:
[1] = UV-VIS absorption of the photoinitiators; type: physicochemical; conditions: for long-wave absorption maximum (λmax): UV-VIS; for extinction coefficient ε: at λmax
Description: The photoinitiator di-Ge according to the invention with a long-wave absorption maximum of 400.5 nm has an extinction coefficient ε=3260 dm^2/mol which is thus more than twice that of benzoyltrimethylgermane mono-Ge (ε=1461 dm^2/mol), which leads to an improvement in photopolymerization activity. Compared with the Norrish type II photoinitiator camphorquinone widely used in the dental field, the extinction coefficient of which ε at λmax of 468 nm is only 380 dm^2/mol and which moreover requires an additional reducing agent, in most cases amine, for effective radical formation, the absorption maximum of di-Ge is clearly on a shorter wavelength and thus fades very well when irradiated.

[2] = background statement; cited from earlier work

| Structure (SMILES) | long-wave absorption maximum (λmax) [1] [nm] | extinction coefficient ε [1] | absorption maximum wavelength [2] [nm] |
| --- | --- | --- | --- |
| [CH3][Ge]([CH3])([CH3])[C](=O)c1ccccc1 [mono-Ge, benzoyltrimethylgermanium] | 411.5 | 1374 dm^2/mol and 1461 dm^2/mol |  |
| [CH3][Ge]([CH3])([CH3])[C](=O)c1ccc(OCCCCCCOc2ccc([C](=O)[Ge]([CH3])([CH3])[CH3])cc2)cc1 [di-Ge, 1,6-bis[4-(trimethylgermylcarbonyl)phenoxy]hexane] | 400.5 | 3260 dm^2/mol |  |
| CC12CCC(C(=O)C1=O)C2(C)C (stereo not shown) [camphorquinone] | 468 | 380 dm^2/mol | 468 |
